pIC50: −log10 of the molar value. Where two headings read alike, the source gives them in different places.
Key:
[1] = tested on: Mtb H37Rv; design: method as in Sorrentino et al, 2015; details: ref Sorrentino et al, 2015; cited from earlier work
[2] = tested on: M. marinum luxCDABE; format: cell-based, Mycobacterium marinum; details: 10 µM
[3] = tested on: M. marinum GFP; format: cell-based, Mycobacterium marinum; details: 10 µM; antibiotic assay
[4] = tested on: M. marinum in A. castellanii; format: cell-based, Mycobacterium marinum; details: 10 µM
[5] = tested on: D. discoideum GFP-ABD; details: 10 µM
[6] = tested on: Mtb H37Rv in THP-1; design: method as in Sorrentino et al, 2015; details: ref Sorrentino et al, 2015, cited from earlier work; for Extracellular MIC90/ Inracellular MIC90: ratio
[7] = tested on: M. marinum in BV2 microglial cells; format: cell-based, Mycobacterium marinum; details: for BV2 / M. marinum normalised growth, control=1.00, mean / hit in BV2/M. marinum assay True/False: 10 µM
[8] = THP1 / Mtb H37Rv infection assay

| Compound | Extracellular MIC90 [1] [µM] | M. marinum luxCDABE normalised growth, control=1.00, mean [2] | M. marinum GFP normalised growth, control=1.00, mean [3] | A. castellanii / M. marinum normalised growth, control=1.00, mean [4] | D. discoideum GFP-ABD normalised growth, control=1.00, mean [5] | Intracelullar MIC90 in THP-1 [6, 8] [µM] | Extracellular MIC90/ Inracellular MIC90 [6] | pIC50 [7] | BV2 / M. marinum normalised growth, control=1.00, mean [7] | M. marinum luxCDABE normalised growth, control = 1.00, mean [2] | Hits A. castellanii/M. marinum assay True/False [4] | D. discoideum GFP-ABD normalised growth, control = 1.00, mean [5] | Intracelullar MIC90 in THP-1 ([6]; Mtb H37Rv-infected THP1 cells) [µM] | hit in BV2/M. marinum assay True/False [7] | A. castellanii/M. marinum normalised growth, control = 1.00, mean [4] |
| --- | --- | --- | --- | --- | --- | --- | --- | --- | --- | --- | --- | --- | --- | --- | --- |
| Nc1ccccc1Nc1ccc2c(c1)OCO2 [SB-435634] | 1.8 | 1.00 | 1.08 | 1.04 | 1.14 | 5.55 | 0.32 | 4.94 | 0.63 | – | – | – | – | – | – |
| Cc1ccc2nc(C(F)(F)F)c(C(=O)NCc3ccc4c(c3)OCO4)n2c1 [GSK1829732A] | 1.1 | 0.00 | 0.06 | 0.56 | 1.00 | 1.85 | 0.59 | 5.45 | 0.34 | 0,00 | FALSE | 1,00 | 1.85 | TRUE | – |
| Cc1n[nH]c(C)c1S(=O)(=O)NCc1nc(NCCCc2ccccc2)c2ccccc2n1 [GSK2059310A] | 1.8 | 0.00 | 0.46 | 1.06 | 0.84 | 5.55 | 0.32 | 5.33 | 0.57 | – | – | – | – | – | – |
| Cc1ccc2nc(C(F)(F)F)c(C(=O)NCc3ccc(C)o3)n2c1 [GSK1829728A] | 3.4 | 0.00 | 0.10 | 0.78 | 1.01 | 1.85 | 1.84 | 5.39 | 0.43 | 0,00 | FALSE | 1,01 | 1.85 | TRUE | – |
| Br.Cc1ccccc1OCCCON1C(=N)N=C(N)NC1(C)C [BRL-8903SA] | 3.8 | 0.00 | 0.06 | 2.27 | 0.88 | 16.65 | 0.23 | 5.37 | 0.52 | – | – | – | – | – | – |
| Cc1cc(OCC(=O)Nc2ccccc2)c2cc(Br)ccc2n1 [GW857165X] | 3.3 | 0.00 | 0.81 | 0.83 | 0.90 | 16.65 | 0.2 | 5.45 | 0.72 | – | – | – | – | – | – |
| CCn1c(=O)c(=O)[nH]c2cc(C(=O)Nc3ccccc3Nc3ccc(OC)cc3)ccc21 [GSK1385423A] | 8.4 | 1.00 | 0.98 | 1.07 | 0.39 | 0.61 | 13.77 | 5.62 | 0.71 | – | – | – | – | – | – |
| Br.CC1(C)N=C(N)N=C(N)N1OCCc1ccc2ccccc2c1 [BRL-8088SA] | 2.3 | 0.00 | 0.05 | 2.26 | 0.71 | 5.55 | 0.41 | 5.55 | 0.52 | – | – | – | – | – | – |
| CCc1ccc(S(=O)(=O)Nc2cc(CN3CCN(CCC(C)C)CC3)ccc2C)cc1.O=C(O)C(F)(F)F.O=C(O)C(F)(F)F [SB-811137-V] | 4.7 | 0.18 | 0.94 | 1.15 | 0.88 | 5.55 | 0.85 | 5.23 | 0.85 | – | – | – | – | – | – |
| O=C(NNC(=O)c1ccc([N+](=O)[O-])o1)c1ccc2ccccc2c1 [GSK347301A] | 8.3 | 0.19 | 1.03 | 0.90 | 0.49 | 16.65 | 0.5 | 5.18 | 0.97 | – | – | – | – | – | – |
| FC(F)(F)c1nnc2ccc(Cl)nn12 [GSK352635A] | 9.1 | 0.60 | 0.81 | 1.02 | 1.17 | 50 | 0.18 | 5.12 | 0.89 | – | – | – | – | – | – |
| O=C(NC12CC3CC(CC(C3)C1)C2)c1cc2cc(Cl)ccc2[nH]1 [GW623128X] | 1 | 0.00 | 0.86 | 0.51 | 1.06 | 0.07 | 14.28 | 5.31 | 0.66 | – | – | – | – | – | – |
| Br.CC(C)(C)c1ccccc1OCCCON1C(=N)N=C(N)NC1(C)C [BRL-7940SA] | 2.3 | 0.00 | 0.04 | 2.62 | 0.67 | 1.85 | 1.24 | 5.50 | 0.53 | – | – | – | – | – | – |
| COc1ccc(CCNc2cc(-c3ccccc3)nc3ncnn23)cc1 [GSK888636A] | 0.6 | 0.00 | 0.44 | 1.02 | 1.15 | 1.85 | 0.32 | 5.27 | 0.72 | – | – | – | – | – | – |
| CNc1nc(SCC(=O)N(C)Cc2ccc(Cl)s2)nc2ccccc12 [GSK1925843A] | 5.6 | 0.00 | 0.70 | 1.12 | 1.10 | 16.65 | 0.34 | 5.42 | 0.43 | 0,00 | FALSE | 1,10 | 16.65 | TRUE | 1,12 |
| c1csc(Cc2nn3c(-c4[nH]nc5c4CCC5)nnc3s2)c1 [GSK810037A] | 2.4 | 0.11 | 0.73 | 1.03 | 0.76 | 1.85 | 1.3 | 5.32 | 0.81 | – | – | – | – | – | – |
| Clc1ccc(CCNc2cc(-c3ccccc3)nc3ncnn23)cc1 [GSK1955236A] | 1.5 | 0.00 | 0.66 | 1.32 | 0.93 | 1.85 | 0.81 | 5.24 | 0.80 | – | – | – | – | – | – |
| Cc1cccc(Cn2ccc(NC(=O)c3ccc4c(c3)OCO4)n2)c1 [GSK798463A] | 3.7 | 0.00 | 0.0323 | 0.57 | 0.66 | 5.55 | 0.67 | 5.30 | 0.80 | – | – | – | – | – | – |

Source: PMC5834492, “Antimycobacterial drug discovery using Mycobacteria-infected amoebae identifies anti-infectives and new molecular targets” (Scientific Reports, 2018)
